This is an account of results in patent publication US10508104B2, “6-hydroxy-5-(phenyl/heteroarylsulfonyl)pyrimidin-4(1H)-one as APJ agonists” (Bristol-Myers Squibb Company, priority 2016, dated 2019).

Molecules are shown by their SMILES.

The target of one test is human APJ receptor (Homo sapiens (Human), UniProt P35414). Briefly: Intracellular cAMP accumulation assay (APJ hcAMP, HTRF). Format: cell-based. The note with it: HEK293 cells stably expressing human APJ receptor; inhibition of forskolin-mediated cAMP production; read-out: Human APJ cAMP EC50 Potency range. In a few lines: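 HEK293 cells stably expressing human APJ, 5,000 per well, incubated 30 min at rt with compound, […] and 2 μM forskolin. cAMP measured by HTRF against a cAMP standard curve as inhibition of forskolin-driven production. EC50 from variable-slope sigmoidal fit.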
human APJ receptor, sequence (P35414 whole entry): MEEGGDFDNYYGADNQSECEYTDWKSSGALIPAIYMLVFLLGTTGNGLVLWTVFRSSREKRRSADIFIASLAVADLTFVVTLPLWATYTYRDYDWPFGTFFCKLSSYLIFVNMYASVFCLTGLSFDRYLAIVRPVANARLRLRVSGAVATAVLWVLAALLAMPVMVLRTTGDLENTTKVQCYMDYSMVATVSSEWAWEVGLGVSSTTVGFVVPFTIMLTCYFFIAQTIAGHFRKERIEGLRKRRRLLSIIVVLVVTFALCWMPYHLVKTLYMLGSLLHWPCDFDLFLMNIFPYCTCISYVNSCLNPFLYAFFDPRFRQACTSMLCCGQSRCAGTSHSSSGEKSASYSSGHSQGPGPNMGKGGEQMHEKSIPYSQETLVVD
Background: Cyclic AMP is a second messenger, typically raised through Gs and lowered through Gi signalling.
In the case of `CC[C@@H](c1cc(F)cc(C#N)c1)n1c(CC2CC2)nc(=O)c(S(=O)(=O)c2ccc(-c3ccnc(F)c3C)cc2)c1O` [Example 488, 3-[(1S)-1-[2-(cyclopropylmethyl)-5-[4-(2-fluoro-3-methylpyridin-4-yl)benzenesulfonyl]-6-hydroxy-4-oxo-1,4-dihydropyrimidin-1-yl]propyl]-5-fluorobenzonitrile], the EC50 was in the range of 0.01 to 10 nM.

Regarding `CCCCc1nc(=O)c(S(=O)(=O)c2ccc(-c3ccc(F)cc3C(N)=O)cc2)c(O)n1[C@@H](CC)c1cccc(C#N)c1` [Example 494, 4′-({2-butyl-1-[(1S)-1-(3-cyanophenyl)propyl]-6-hydroxy-4-oxo-1,4-dihydropyrimidin-5-yl}sulfonyl)-4-fluoro-[1,1′-biphenyl]-2-carboxamide], the EC50 is 0.01 to 10 nM.

As for `CCCCc1nc(=O)c(S(=O)(=O)c2ccc(-c3ccccc3C(=O)NC3CC3)cc2)c(O)n1[C@@H](CC)c1cccc(C#N)c1` [Example 522, 4′-({2-butyl-1-[(1S)-1-(3-cyanophenyl)propyl]-6-hydroxy-4-oxo-1,4-dihydropyrimidin-5-yl}sulfonyl)-N-cyclopropyl-[1,1′-biphenyl]-2-carboxamide], the half-maximal effective concentration (EC50) lay in the range of 0.01 to 10 nM.

Turning to `CCCCc1nc(=O)c(S(=O)(=O)c2ccc(-c3ccnc(F)c3C)cc2)c(O)n1[C@H](c1cccc(C#N)c1)C1CC1` [Example 476, 3-[(S)-{2-butyl-5-[4-(2-fluoro-3-methylpyridin-4-yl)benzenesulfonyl]-6-hydroxy-4-oxo-1,4-dihydropyrimidin-1-yl}(cyclopropyl)methyl] benzonitrile], the EC50 lay in the range of 0.01 to 10 nM.

Still in this test, the particulars now being: human APJ, intracellular cAMP accumulation; read-out: Human APJ cAMP EC50 Potency range.
As to `CCCCc1nc(=O)c(S(=O)(=O)c2ccc(-c3cncc(F)c3)cc2)c(O)n1[C@@H](COC)c1ccccc1` [Example 132, 2-butyl-5-[4-(5-fluoropyridin-3-yl)benzenesulfonyl]-6-hydroxy-1-[(1R)-2-methoxy-1-phenylethyl]-1,4-dihydropyrimidin-4-one], the EC50 lay in the range of 0.01 to 10 nM.

In the case of `CCCc1nc(=O)c(S(=O)(=O)c2ccc(-c3ccc(F)nc3)cc2)c(O)n1[C@@H](COC)c1ccccc1` [Example 174, 5-[4-(6-fluoropyridin-3-yl)benzenesulfonyl]-6-hydroxy-1-[(1R)-2-methoxy-1-phenylethyl]-2-propyl-1,4-dihydropyrimidin-4-one], the EC50 lay within 0.01 to 10 nM.

Regarding `CCCCc1nc(=O)c(S(=O)(=O)c2ccc(Br)cc2)c(O)n1[C@H](C)c1cccc(C#N)c1` [Example 121, 3-[(1R)-1-[5-(4-bromobenzenesulfonyl)-2-butyl-6-hydroxy-4-oxo-1,4-dihydropyrimidin-1-yl]ethyl]benzonitrile], the EC50 lay in the range of 100 to 300 nM.

For `CCCCc1nc(=O)c(S(=O)(=O)c2ccc(-c3ccnc(OC)c3)cc2)c(O)n1-c1c(OC)cccc1OC` [Example 43, 2-butyl-1-(2,6-dimethoxyphenyl)-6-hydroxy-5-[4-(2-methoxypyridin-4-yl)benzenesulfonyl]-1,4-dihydropyrimidin-4-one], the EC50 was in the range of 0.01 to 10 nM.

In the case of `COC[C@@H](c1ccccc1)n1c(CC2CC2)nc(=O)c(S(=O)(=O)c2ccc(-c3ccc(F)nc3)cc2)c1O` [Example 182, 2-(cyclopropylmethyl)-5-[4-(6-fluoropyridin-3-yl)benzenesulfonyl]-6-hydroxy-1-[(1R)-2-methoxy-1-phenylethyl]-1,4-dihydropyrimidin-4-one], the EC50 lay in the range of 0.01 to 10 nM.

Regarding `COc1cccc(OC)c1-n1c(COC(C)C)nc(=O)c(S(=O)(=O)c2ccc(-c3ccccc3)cc2)c1O` [Example 33, 1-(2,6-dimethoxyphenyl)-6-hydroxy-5-(4-phenylbenzenesulfonyl)-2-[(propan-2-yloxy)methyl]-1,4-dihydropyrimidin-4-one], the EC50 fell in the range of 0.01 to 10 nM.

For `CCCCc1nc(=O)c(S(=O)(=O)c2ccc(-c3ccc(C(N)=O)cc3)cc2)c(O)n1-c1c(OC)cccc1OC` [Example 44, 4-(4-{[2-butyl-1-(2,6-dimethoxyphenyl)-6-hydroxy-4-oxo-1,4-dihydropyrimidin-5-yl]sulfonyl}phenyl) benzamide], the EC50 lay within 0.01 to 10 nM.

`CCCCc1nc(=O)c(S(=O)(=O)c2ccc(C(=O)N3CCOCC3)cc2)c(O)n1-c1c(OC)cccc1OC` [Example 96, 2-butyl-1-(2,6-dimethoxyphenyl)-6-hydroxy-5-[4-(morpholine-4-carbonyl)benzenesulfo-nyl]-1,4-dihydropyrimidin-4-one]: the EC50 fell in the range of 0.01 to 10 nM.

Turning to `CCCCc1nc(=O)c(S(=O)(=O)c2ccc(-c3ccncc3C)cc2)c(O)n1[C@H](CC)c1ccccc1` [Example 143, 2-butyl-6-hydroxy-5-[4-(3-methylpyridin-4-yl)benzenesulfonyl]-1-[(1R)-1-phenylpropyl]-1,4-dihydropyrimidin-4-one], the EC50 was 0.01 to 10 nM.

For the molecule `CCCCc1nc(=O)c(S(=O)(=O)c2ccc(-c3ccnc(C)c3)cc2)c(O)n1[C@@H](COC)c1ccccc1` [Example 153, 2-butyl-6-hydroxy-1-[(1R)-2-methoxy-1-phenylethyl]-5-[4-(2-methylpyridin-4-yl)benzenesulfonyl]-1,4-dihydropyrimidin-4-one], the EC50 was 0.01 to 10 nM.

By EC50 is commonly meant the concentration that produces a half-maximal response.
